Data: ChEMBL document CHEMBL1201862, “PubChem BioAssay data set” (2004)
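Following 48 hours of exposure in 96-well plates, responses at five concentrations were used to interpolate endpoints linearly. GI50 marks 50% less growth.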 The source made the active and inactive calls. Cut-off read from the data, not from the text of the source: active = GI50 up to about 1.1 µM and inactive = higher.

What was measured:
Assay in all cases: inhibition of tumour cell growth, NCI panel, 48 h
EKVX = system: EKVX
HOP-92 = system: HOP-92
SNB-75 = system: SNB-75
OVCAR-5 = system: OVCAR-5
RXF 393 = system: RXF 393
SF-295 = system: SF-295
HL-60 = system: HL-60
ACHN = system: ACHN
OVCAR-4 = system: OVCAR-4
RPMI-8226 = system: RPMI-8226
SF-539 = system: SF-539
HCC 2998 = system: HCC 2998
UACC-62 = system: UACC-62
SNB-19 = system: SNB-19
786-0 = system: 786-0
SK-OV-3 = system: SK-OV-3
K562 = system: K562
SK-MEL-5 = system: SK-MEL-5
SR = system: SR

Row | SMILES | GI50 (EKVX) | GI50 (HOP-92) | GI50 (SNB-75) | GI50 (OVCAR-5) | GI50 (RXF 393) | GI50 (SF-295) | GI50 (HL-60) | GI50 (ACHN) | GI50 (OVCAR-4) | GI50 (RPMI-8226) | GI50 (SF-539) | GI50 (HCC 2998) | GI50 (UACC-62) | GI50 (SNB-19) | GI50 (786-0) | GI50 (SK-OV-3) | GI50 (K562) | GI50 (SK-MEL-5) | GI50 (SR)
1 | N#CC(C(=N/NC(N)=S)/C(=N\NC(N)=S)C(C#N)c1ccccc1)c1ccccc1 (stereo not drawn) | > 10 µM (inactive) | > 10 µM (inactive) | > 10 µM (inactive) | > 10 µM (inactive) | > 10 µM (inactive) | > 10 µM (inactive) | > 10 µM (inactive) | > 10 µM (inactive) | > 10 µM (inactive) | > 10 µM (inactive) | > 10 µM (inactive) | > 10 µM (inactive) | > 10 µM (inactive) | > 10 µM (inactive) | > 10 µM (inactive) | > 10 µM (inactive) | > 10 µM (inactive) |  | 
2 | C/C(=N\NC(=S)N1CCCCCC1)c1nccnc1C | 0.0188 µM (active) |  | 0.605 µM (active) | 0.169 µM (active) | 0.231 µM (active) | 0.124 µM (active) | 0.0508 µM (active) | 0.219 µM (active) | 0.134 µM (active) | 0.159 µM (active) | 0.242 µM (active) | 7.36 µM (inactive) | < 0.01 µM (active) |  | 5.14 µM (inactive) |  | 0.055 µM (active) | 0.0292 µM (active) | 
3 | CCCCCCOc1ccc(NC2=C(Cl)C(=O)c3ncccc3C2=O)cc1 | > 10 µM (inactive) | > 10 µM (inactive) | 1.99 µM (inactive) | 7.35 µM (inactive) | 1.84 µM (inactive) | 1.96 µM (inactive) |  | > 10 µM (inactive) |  |  | 1.72 µM (inactive) |  | 1.44 µM (inactive) | 1.97 µM (inactive) | 2.22 µM (inactive) | > 10 µM (inactive) | 2.59 µM (inactive) | 1.54 µM (inactive) | 
4 | CCCCCCCCCCCCCC(=O)NCC(OCC)OCC | > 100 µM (inactive) | > 100 µM (inactive) | > 100 µM (inactive) | > 100 µM (inactive) | > 100 µM (inactive) | > 100 µM (inactive) | > 100 µM (inactive) | > 100 µM (inactive) | > 100 µM (inactive) |  | > 100 µM (inactive) | > 100 µM (inactive) | > 100 µM (inactive) | > 100 µM (inactive) | > 100 µM (inactive) | > 100 µM (inactive) |  | > 100 µM (inactive) | 
5 | O=C1C=C(Nc2ccccc2C(=O)c2ccccc2)c2ccccc2C1=O | > 100 µM (inactive) | 4.06 µM (inactive) | 96.6 µM (inactive) | > 100 µM (inactive) | > 100 µM (inactive) | > 100 µM (inactive) |  | 45 µM (inactive) | 89.3 µM (inactive) | 51.6 µM (inactive) | > 100 µM (inactive) | > 100 µM (inactive) | 8.04 µM (inactive) | > 100 µM (inactive) | > 100 µM (inactive) | > 100 µM (inactive) |  |  | 48.1 µM (inactive)
6 | COC(=O)C1=C(c2cc(OC)c(OC)c(OC)c2)O[C@H](c2ccc3c(c2)OCO3)[C@H]1COC(C)=O | 41.6 µM (inactive) | 7.24 µM (inactive) | 27.3 µM (inactive) | 48.6 µM (inactive) |  | 6.85 µM (inactive) | 15.6 µM (inactive) | 26.4 µM (inactive) | 29 µM (inactive) | 24.2 µM (inactive) | 26.3 µM (inactive) | 18.3 µM (inactive) |  |  | 29.4 µM (inactive) | 23.1 µM (inactive) | 21.3 µM (inactive) | 9.35 µM (inactive) | 7.35 µM (inactive)
7 | CN1CCc2ccccc2C(C(=O)c2ccc3c(c2)OCO3)C1=O (stereo not drawn) |  | > 100 µM (inactive) | > 100 µM (inactive) |  | > 100 µM (inactive) |  | > 100 µM (inactive) | > 100 µM (inactive) | 89.3 µM (inactive) | > 100 µM (inactive) |  |  | > 100 µM (inactive) | > 100 µM (inactive) | > 100 µM (inactive) | > 100 µM (inactive) | > 100 µM (inactive) | 53.3 µM (inactive) | 
8 | CC(=O)O[C@H]1CC[C@@]2(C)C(=CC[C@@H]3[C@@H]2CC[C@]2(C)c4nc(N)c(C#N)cc4C[C@@H]32)C1 | 27.9 µM (inactive) | 33 µM (inactive) | 7.96 µM (inactive) | > 85.3 µM (inactive) | 10.7 µM (inactive) | 35.7 µM (inactive) | 12.2 µM (inactive) | 26.4 µM (inactive) | 19.9 µM (inactive) | 5.83 µM (inactive) | 13.7 µM (inactive) | > 55.3 µM (inactive) | 40.6 µM (inactive) | > 100 µM (inactive) | 28.7 µM (inactive) | 38.2 µM (inactive) | 15.8 µM (inactive) | 12.8 µM (inactive) | 
9 | CCOC(=O)NNC(=O)NC12CC3CC(CC(C3)C1)C2 | > 100 µM (inactive) | > 100 µM (inactive) | > 100 µM (inactive) | > 100 µM (inactive) | > 100 µM (inactive) | > 100 µM (inactive) |  | > 100 µM (inactive) | > 100 µM (inactive) |  | > 100 µM (inactive) | > 100 µM (inactive) | > 100 µM (inactive) | > 100 µM (inactive) | > 100 µM (inactive) | > 100 µM (inactive) | > 100 µM (inactive) | > 100 µM (inactive) | 
10 | COc1ccc(S(=O)(=O)N/N=C/CN2C(=O)c3ccccc3C2=O)cc1 | > 100 µM (inactive) |  | > 100 µM (inactive) |  | > 100 µM (inactive) | > 100 µM (inactive) | > 100 µM (inactive) | > 100 µM (inactive) | > 100 µM (inactive) | > 100 µM (inactive) | > 100 µM (inactive) | > 100 µM (inactive) | > 100 µM (inactive) | > 100 µM (inactive) | > 100 µM (inactive) |  | > 100 µM (inactive) | > 100 µM (inactive) | > 100 µM (inactive)
11 | CCOC(=O)C(=O)Nc1nc2ccc(C)cc2s1 | > 100 µM (inactive) | > 100 µM (inactive) | > 100 µM (inactive) | > 100 µM (inactive) |  |  |  | > 100 µM (inactive) | > 100 µM (inactive) | > 100 µM (inactive) | 0.995 µM (active) | > 100 µM (inactive) | > 100 µM (inactive) | > 100 µM (inactive) | 27.9 µM (inactive) | > 100 µM (inactive) | > 100 µM (inactive) | > 100 µM (inactive) | > 100 µM (inactive)
12 | Cc1[nH]c2c(C)cccc2c1C1Cc2ccccc2N1 (stereo not drawn) | 15.5 µM (inactive) | 0.0214 µM (active) | > 100 µM (inactive) | 21.2 µM (inactive) | 10.7 µM (inactive) | 19.8 µM (inactive) | 19.8 µM (inactive) | 27.4 µM (inactive) |  | 22.9 µM (inactive) | 17.8 µM (inactive) |  | 18.6 µM (inactive) | 29.1 µM (inactive) | 22.3 µM (inactive) | 36.5 µM (inactive) | 29.2 µM (inactive) | 18.5 µM (inactive) | 20.7 µM (inactive)
13 | COc1ccc(NC(=O)c2oc3cc(O)ccc3c(=O)c2C)c([N+](=O)[O-])c1 | > 100 µM (inactive) | > 100 µM (inactive) | > 100 µM (inactive) | > 100 µM (inactive) | > 100 µM (inactive) | > 100 µM (inactive) | > 100 µM (inactive) | > 100 µM (inactive) | > 100 µM (inactive) |  | > 100 µM (inactive) | > 100 µM (inactive) | > 100 µM (inactive) | > 100 µM (inactive) | > 100 µM (inactive) | > 100 µM (inactive) | > 100 µM (inactive) | > 100 µM (inactive) | > 100 µM (inactive)
14 | CC(=O)Nc1ccc(C2[C@H]3C(=O)N(c4ccc(Cc5ccc(N6C(=O)[C@@H]7ON(c8ccccc8)C(c8ccc(NC(C)=O)cc8)[C@@H]7C6=O)cc5)cc4)C(=O)[C@H]3ON2c2ccccc2)cc1 (stereo partly drawn) | > 100 µM (inactive) |  | > 100 µM (inactive) | > 100 µM (inactive) | > 100 µM (inactive) | > 100 µM (inactive) | > 100 µM (inactive) | > 100 µM (inactive) | > 100 µM (inactive) | > 100 µM (inactive) | > 100 µM (inactive) | > 100 µM (inactive) | 70.8 µM (inactive) | > 100 µM (inactive) | > 100 µM (inactive) | > 100 µM (inactive) | > 100 µM (inactive) | 32.6 µM (inactive) | > 100 µM (inactive)
15 | Cc1ncc([N+](=O)[O-])n1CCNC(=O)CCCn1ccnc1[N+](=O)[O-] | > 100 µM (inactive) |  | > 100 µM (inactive) | > 100 µM (inactive) | > 100 µM (inactive) | > 100 µM (inactive) | > 100 µM (inactive) | > 100 µM (inactive) | > 100 µM (inactive) | > 100 µM (inactive) | > 100 µM (inactive) | > 100 µM (inactive) | > 100 µM (inactive) | > 100 µM (inactive) | > 100 µM (inactive) |  | > 100 µM (inactive) | > 100 µM (inactive) | > 100 µM (inactive)
16 | COc1ccc(C(Cc2cc(OC)c(OC)c(OC)c2)C(=O)O)cc1 (stereo not drawn) | 63 µM (inactive) |  | 22.8 µM (inactive) | > 100 µM (inactive) |  | 26.1 µM (inactive) |  | > 100 µM (inactive) | > 100 µM (inactive) | 55.8 µM (inactive) | 42.6 µM (inactive) | > 100 µM (inactive) | 31.2 µM (inactive) | 62.7 µM (inactive) | 71.8 µM (inactive) | 52.6 µM (inactive) | 40.4 µM (inactive) | 25.9 µM (inactive) | 
